Measured values: patent US7935806B2, “Method for performing in vitro diagnosis using gene regulation mechanisms and corresponding diagnosis kit” (Unisensor S.A., priority 2001, dated 2011)

Columns and labels:
MetJ = MetJ (Escherichia coli, UniProt P0A8U6); settings: in the presence of the co-repressor; cited from earlier work
avidin = target: T1, avidin (Gallus gallus, UniProt P02701); settings: non-covalent; cited from earlier work
T1 construct: The avidin is a tetrameric glycoprotein isolated from egg-white; from tissue; host or cells: egg-white

tetR of class C = target: T2, tetR of class C (Escherichia coli, UniProt P03039); assay type: binding, E. Coli C600; settings: 25 ppb in honey, read with the naked eye
T2 construct: two primers have been selected for amplification by PCR of the gene which has then been cloned in a pet12a-expression plasmid; made in house; host or cells: E. coli HB101 carrying pT7po123; expression plasmid pet12a
T2 sequence (P03039 whole entry): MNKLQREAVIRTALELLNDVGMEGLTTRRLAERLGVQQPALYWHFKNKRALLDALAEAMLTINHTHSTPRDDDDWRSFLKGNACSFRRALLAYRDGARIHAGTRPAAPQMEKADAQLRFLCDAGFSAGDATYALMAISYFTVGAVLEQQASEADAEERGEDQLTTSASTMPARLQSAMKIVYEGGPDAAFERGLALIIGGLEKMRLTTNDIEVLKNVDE
Protocol: In the example showing the measurement of the concentration based on samples of honey, one unpurified part of serum obtained above is placed in the presence of one part of tetR receptor obtained above in 1.1.1, 15 parts of A-protein marked by means of particles of colloidal gold of 40 nm and one DO at 500 nm of 10 (available from Unisensor S.A., Liege, Belgium) and 20 parts of lyophilisation buffer (Tris 10 mM, pH 8, BSA 5 mg/ml, sucrose 10 g/l). This mixture is lyophilised for 20 hours.
To 1 gram of honey are added 3 ml of dilution buffer (for 1 litre, 2.73 g of Na2HPO4.2H2O, 1.65 g of citric acid, 7 g of BSA and 2.5 g of Tween-20, pH 5) and the solutin is stirred vigorously so as to obtain a homogeneous solution. 200 μl of this dilution of the sample of honey are then incubated in the presence of the lyophilisate prepared above (see Point 1.1.2.2). After 10 minutes of incubation at ambient temperature (±20° C.), the analysis strip described above at 1.3 is immersed in the solution. The final interpretation is made with the naked eye, after 15 minutes of incubation at ambient temperature.

Chain of MetJ (P0A8U6 2-105): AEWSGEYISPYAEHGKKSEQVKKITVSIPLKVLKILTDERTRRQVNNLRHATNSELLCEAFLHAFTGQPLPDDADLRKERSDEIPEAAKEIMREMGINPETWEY
T1 sequence (P02701 25-152): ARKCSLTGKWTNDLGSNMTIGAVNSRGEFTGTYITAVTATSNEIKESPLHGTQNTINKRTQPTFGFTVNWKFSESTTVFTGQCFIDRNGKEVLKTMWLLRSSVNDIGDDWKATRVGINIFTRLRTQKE

C[S+](CC[C@H](N)C(=O)[O-])C[C@H]1O[C@@H](n2cnc3c(N)ncnc32)[C@H](O)[C@@H]1O (stereo partly drawn) [s-adenosylmethionine]
increase of MetJ affinity for DNA (MetJ): more than 1,000 times

O=C(O)CCCC[C@@H]1SC[C@@H]2NC(=O)N[C@@H]21 [biotin]
affinity of avidin sub-unit for biotin (Ka) (avidin): 10^15 M^−1

CN(C)[C@@H]1C(O)=C(C(N)=O)C(=O)[C@@]2(O)C(O)=C3C(=O)c4c(O)ccc(Cl)c4[C@@H](O)[C@H]3C[C@@H]12 [demedocycline]
test result (test signal lower than control signal = positive) (tetR of class C): positive result
